From PubChem BioAssay (NCI)
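Grown in 96-well plates, cells were treated for 48 hours with each compound at five concentrations. Insufficient inhibition: endpoint recorded as highest concentration tested. GI50 is the concentration that inhibits growth by half. Definition used: TGI = concentration required for complete inhibition of growth.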

What was measured:
Assay in all cases: inhibition of tumour cell growth, NCI panel, 48 h
786-0 renal = system: 786-0 renal
HCT-116 colon = system: HCT-116 colon
HOP-92 NSCLC = system: HOP-92 NSCLC
SF-295 CNS = system: SF-295 CNS
SNB-19 CNS = system: SNB-19 CNS
SW-620 colon = system: SW-620 colon

## FC(F)(F)c1ccc2c(Nc3cccc(C4CC(c5ccccc5)=NN4c4ccc(Cl)cc4)c3)ccnc2c1 (centres undefined)
786-0 renal
  GI50: 2.73 µM
  TGI: 10.7 µM
HCT-116 colon
  GI50: 1.62 µM
  TGI: 3.63 µM
HOP-92 NSCLC
  GI50: 3.21 µM
  TGI: 40.5 µM
SF-295 CNS
  GI50: 2.25 µM
  TGI: 8.67 µM
SNB-19 CNS
  GI50: 4.38 µM
  TGI: 27 µM
SW-620 colon
  GI50: 2.79 µM
  TGI: 8.34 µM

## CCCCCCNc1nc(NCCCCCC)c2[nH]c(NCCCCCC)nc2n1
786-0 renal
  GI50: 14.5 µM
  TGI: 27.6 µM
HCT-116 colon
  GI50: 1.34 µM
  TGI: 3.46 µM
HOP-92 NSCLC
  GI50: 5.43 µM
  TGI: 16.9 µM
SF-295 CNS
  GI50: 12.8 µM
  TGI: 31.3 µM
SNB-19 CNS
  GI50: 15.5 µM
  TGI: 29.5 µM
SW-620 colon
  GI50: 3.04 µM
  TGI: 12.3 µM

## CCCCCC(=O)Oc1ccc(/C(=C(\C)c2ccc(OC)cc2)c2ccc(OCCN3CCCCC3)cc2)cc1
786-0 renal
  GI50: 1.98 µM
  TGI: 5.61 µM
HCT-116 colon
  GI50: 7.36 µM
  TGI: 20.5 µM
HOP-92 NSCLC
  GI50: 3.83 µM
  TGI: 17 µM
SF-295 CNS
  GI50: 2.28 µM
  TGI: 6.32 µM
SNB-19 CNS
  GI50: 11.4 µM
  TGI: 24.8 µM
SW-620 colon
  GI50: 3.59 µM
  TGI: 14 µM

## COc1ccc2c(c1)[C@@]13CCN4CC5=CCO[C@H]6CC(=O)N2[C@H]1[C@H]6[C@H]5C[C@H]43
786-0 renal
  TGI: > 100 µM
HCT-116 colon
  TGI: > 100 µM
HOP-92 NSCLC
  TGI: > 100 µM
SF-295 CNS
  TGI: > 100 µM
SNB-19 CNS
  TGI: > 100 µM
SW-620 colon
  TGI: > 100 µM

## Cc1c(C(=O)NN)nnn1-c1ccnc2c(C(F)(F)F)cccc12
786-0 renal
  GI50: > 100 µM
  TGI: > 100 µM
HCT-116 colon
  GI50: > 100 µM
  TGI: > 100 µM
HOP-92 NSCLC
  GI50: > 100 µM
  TGI: > 100 µM
SF-295 CNS
  GI50: > 100 µM
  TGI: > 100 µM
SNB-19 CNS
  GI50: > 100 µM
  TGI: > 100 µM
SW-620 colon
  GI50: > 100 µM
  TGI: > 100 µM

## Nc1ccc(SC23CC4CC(CC(C4)C2)C3)cc1
786-0 renal
  TGI: > 100 µM
HCT-116 colon
  TGI: > 100 µM
SF-295 CNS
  TGI: > 100 µM
SNB-19 CNS
  TGI: > 100 µM
SW-620 colon
  TGI: > 100 µM

## Cc1ccc(C(=O)CC(Sc2cccc(Cl)c2Cl)c2ccc(Cl)cc2)cc1C (centres undefined)
786-0 renal
  GI50: 17.8 µM
  TGI: 36.2 µM
HCT-116 colon
  GI50: 19.4 µM
  TGI: 49.8 µM
SF-295 CNS
  GI50: 16.9 µM
  TGI: 37.2 µM
SNB-19 CNS
  GI50: 27.5 µM
  TGI: 78.8 µM
SW-620 colon
  GI50: 17.8 µM
  TGI: 36 µM

## NCCN1CCN(c2nccc(-c3ccc4ccccc4c3)n2)CC1
786-0 renal
  GI50: 1.69 µM
  TGI: 3.17 µM
HCT-116 colon
  GI50: 1.79 µM
  TGI: 3.3 µM
HOP-92 NSCLC
  GI50: 1.61 µM
  TGI: 4.01 µM
SF-295 CNS
  GI50: 1.68 µM
  TGI: 3.34 µM
SNB-19 CNS
  GI50: 2.26 µM
  TGI: 5.98 µM
SW-620 colon
  GI50: 1.83 µM
  TGI: 3.61 µM

## CC(=O)n1c(-c2ccc(Cl)cc2)nc2c(c1=O)C(c1ccc(Cl)cc1)c1sc3c(Cl)cccc3c1O2 (centres undefined)
786-0 renal
  GI50: 0.48 µM
  TGI: 1.7 µM
HCT-116 colon
  GI50: 0.301 µM
  TGI: 1.44 µM
HOP-92 NSCLC
  GI50: 1.27 µM
  TGI: 4.61 µM
SF-295 CNS
  GI50: 0.31 µM
  TGI: 1.24 µM
SNB-19 CNS
  GI50: 0.469 µM
  TGI: 1.98 µM
SW-620 colon
  GI50: 0.388 µM
  TGI: 1.68 µM

## Cc1noc(C)c1-c1ccc2[nH]c(=O)n3c2c1OC[C@@H]3c1ccccn1
786-0 renal
  GI50: 3.94 µM
  TGI: > 100 µM
HCT-116 colon
  GI50: 2.84 µM
  TGI: > 100 µM
HOP-92 NSCLC
  GI50: 0.323 µM
  TGI: > 100 µM
SF-295 CNS
  GI50: 1.84 µM
  TGI: > 100 µM
SNB-19 CNS
  GI50: 4.81 µM
  TGI: > 100 µM
SW-620 colon
  GI50: > 100 µM
  TGI: > 100 µM

## C=C(C)[C@@H]1CC[C@@]2(C(=O)O)CC[C@]3(C)C(CCC4[C@@]5(C)CCC(OS(=O)(=O)c6ccccc6)C(C)(C)C5CC[C@]43C)C12 (some centres undefined)
786-0 renal
  GI50: 4.73 µM
  TGI: 19 µM
HCT-116 colon
  GI50: 2.9 µM
  TGI: 13.1 µM
HOP-92 NSCLC
  GI50: 2.47 µM
  TGI: 16.2 µM
SF-295 CNS
  GI50: 1.93 µM
  TGI: 11.8 µM
SNB-19 CNS
  GI50: 10.1 µM
  TGI: 32.7 µM
SW-620 colon
  GI50: 3.89 µM
  TGI: 15.2 µM

## CN(C)c1nc(-c2cccs2)n2nc(-c3ccc(Cl)cc3)cc2n1
786-0 renal
  GI50: 3.93 µM
  TGI: > 100 µM
HCT-116 colon
  GI50: 2.43 µM
  TGI: > 100 µM
SF-295 CNS
  GI50: 2.49 µM
  TGI: > 100 µM
SNB-19 CNS
  GI50: 64.1 µM
  TGI: > 100 µM
SW-620 colon
  GI50: > 100 µM
  TGI: > 100 µM

## Cc1c(-c2nc(N)nc(C3CC3)c2C)nc(N)nc1C1CC1
786-0 renal
  TGI: > 100 µM
HCT-116 colon
  TGI: > 100 µM
HOP-92 NSCLC
  TGI: > 100 µM
SF-295 CNS
  TGI: > 100 µM
SNB-19 CNS
  TGI: > 100 µM
SW-620 colon
  TGI: > 100 µM

## COc1ccc2c(c1)C=CC(C#N)N2C(=O)c1ccccc1 (centres undefined)
786-0 renal
  GI50: < 0.01 µM
  TGI: > 100 µM
HCT-116 colon
  GI50: < 0.01 µM
  TGI: > 100 µM
HOP-92 NSCLC
  TGI: 45.9 µM
SF-295 CNS
  GI50: < 0.01 µM
  TGI: > 100 µM
SNB-19 CNS
  GI50: < 0.01 µM
  TGI: > 100 µM
SW-620 colon
  GI50: < 0.01 µM
  TGI: > 100 µM

## CCOC(=O)[C@@H](C)C[C@H](Cc1ccccc1)NC(=O)c1csc([C@@H](C[C@H](C(C)C)N(C)C(=O)[C@@H](NC(=O)[C@H]2CCCCN2C)C(C)(C)C)OC(C)=O)n1
786-0 renal
  GI50: < 0.00167 µM
  TGI: > 6.61 µM
HCT-116 colon
  GI50: < 0.00167 µM
HOP-92 NSCLC
  GI50: < 0.00167 µM
  TGI: 1.44 µM
SF-295 CNS
  GI50: < 0.00167 µM
  TGI: 0.0918 µM
SNB-19 CNS
  GI50: < 0.00167 µM
  TGI: > 16.7 µM
SW-620 colon
  GI50: < 0.00167 µM
  TGI: > 16.7 µM

## COc1ccc(C2C(C#N)=C(N)OC3=C2CCCc2ccc(F)cc23)cc1OC (centres undefined)
786-0 renal
  GI50: 14.7 µM
  TGI: 29.8 µM
HCT-116 colon
  GI50: 11 µM
  TGI: 39.1 µM
HOP-92 NSCLC
  GI50: 17.1 µM
  TGI: 42.4 µM
SF-295 CNS
  GI50: 33.2 µM
  TGI: > 57.3 µM
SNB-19 CNS
  GI50: 30.2 µM
  TGI: > 82.4 µM
SW-620 colon
  GI50: 12.5 µM
  TGI: 30.3 µM

## C=CCOc1c(Br)cc(Br)cc1Br
786-0 renal
  GI50: 34.1 µM
  TGI: > 100 µM
HCT-116 colon
  GI50: 11.4 µM
  TGI: 66.2 µM
HOP-92 NSCLC
  GI50: 35.6 µM
  TGI: > 100 µM
SF-295 CNS
  GI50: 2.71 µM
  TGI: 9.53 µM
SNB-19 CNS
  GI50: 17.4 µM
  TGI: > 100 µM
SW-620 colon
  GI50: 22.6 µM
  TGI: 89.4 µM

## Cc1ncc([N+](=O)[O-])n1CCNC(=O)CCCCn1ccnc1[N+](=O)[O-]
786-0 renal
  TGI: > 100 µM
HCT-116 colon
  TGI: > 100 µM
SF-295 CNS
  TGI: > 100 µM
SNB-19 CNS
  TGI: > 100 µM
SW-620 colon
  TGI: > 100 µM

## O=C(N/N=C/c1ccc(Cl)cc1Cl)c1ccccc1Nc1cccc(C(F)(F)F)c1
786-0 renal
  GI50: 6.74 µM
  TGI: 31 µM
HCT-116 colon
  GI50: 5.62 µM
  TGI: 29.9 µM
HOP-92 NSCLC
  GI50: 1.5 µM
  TGI: 3.57 µM
SF-295 CNS
  GI50: 2.55 µM
  TGI: 8.8 µM
SNB-19 CNS
  GI50: 2.5 µM
  TGI: 6.93 µM
SW-620 colon
  GI50: 8.63 µM
  TGI: > 100 µM

## Cc1ccc(-c2nc(C(Cl)Cl)n3nc(-c4ccccc4)cc3n2)cc1
786-0 renal
  GI50: 0.676 µM
  TGI: 2.17 µM
HCT-116 colon
  GI50: 0.258 µM
  TGI: 0.712 µM
HOP-92 NSCLC
  GI50: 0.281 µM
  TGI: 1.35 µM
SW-620 colon
  GI50: 0.392 µM
  TGI: 2.35 µM
